Molecules are shown by their SMILES.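 Compound exposure: 48 hours, 5 concentrations, 96-well plates. Here, GI50 denotes the concentration required for 50% inhibition of growth.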 Activity calls are given as the source filed them. No stated cut-off is given here; in the data, active = GI50 up to about 1.1 µM and inactive = higher. A value given as a limit tells only on which side of the number the result lay.

Results on ten compounds are retold here after ChEMBL document CHEMBL1201862, “PubChem BioAssay data set” (2004).

Assay in all cases: NCI anticancer screen, dose series, 48 h
The test system of assay [1] is MCF7.
Assay [2] concerns A498.
Assay [3] has as its system TK-10.
Assay [4] relates to MDA-MB-435.
The subject of assay [5] is NCI-H460.
Assay [6] deals with HCT-116.
Assay [7] concerns PC-3.
In assay [8] the test system is HCT-15.
The test system of assay [9] is DU-145.
Assay [10] concerns SF-539.
Assay [11] has as its system SF-268.
For assay [12], the system named is Hs-578T.
Assay [13] deals with OVCAR-3.
In assay [14] the test system is UACC-62.
For assay [15], the system named is NCI/ADR-RES.
For assay [16], the system named is K562.
The subject of assay [17] is HOP-92.
Assay [18] relates to Malme-3M.
Assay [19] has as its system U-251.
For assay [20], the system named is SR.

On to `Cc1cc(Cl)ccc1OCC(=O)Nc1nc(N)nc(N)n1`, for which the GI50 in assay [1], in assay [2], in assay [3], in [4], in assay [5] and in assay [6] was > 100 µM (inactive) in each case. In addition, the GI50 was > 100 µM (inactive) in assay [7]; over 100 µM in [8]; > 100 µM (inactive) in assay [9]; > 100 µM (inactive) in assay [10]; > 100 µM (inactive) in assay [11]; > 100 µM (inactive) in assay [12]. For the same compound, the GI50 in assay [13], in [14], in [15], in [16], in [17] and in assay [18] was > 100 µM (inactive) in each case. In addition, the GI50 in assay [19] and in assay [20] was > 100 µM (inactive) each time.

As for `COc1cc2c(cc1OC)C(=O)N(c1ccc(OCCN3CCCC3)cc1)C2=O`, the GI50 in assay [1], in assay [2], in assay [3], in assay [4], in assay [5] and in [6] was > 100 µM (inactive) each time. The GI50 in [7] was > 100 µM (inactive); in [8] it was over 100 µM; in assay [9], > 100 µM (inactive); in assay [10], > 100 µM (inactive); in assay [11], > 100 µM (inactive); in [12], > 100 µM (inactive). Further, the GI50 in assay [13] was > 100 µM (inactive); in assay [14], > 100 µM (inactive); in [15], > 100 µM (inactive); in [16], > 100 µM (inactive); in assay [17] it was > 100 µM (inactive); in assay [18] it was 20.8 µM (inactive). The GI50 in [19] and in assay [20] was > 100 µM (inactive) in each case.

`O=P(O)(O)CN1CCNCCN(CP(=O)(O)O)CC1`: the GI50 in [1] is 8.79 µM (inactive); in assay [2], 33.7 µM (inactive); in [3], > 49.4 µM (inactive); in [4] it was 36.5 µM (inactive); in assay [5], 11.3 µM (inactive); in assay [6], 8.93 µM (inactive). Besides, the GI50 in [7] was 52.4 µM (inactive); in assay [8], 8.89 µM; in assay [9], > 100 µM (inactive); in assay [10] it was > 22.1 µM (inactive); in assay [11], 75.2 µM (inactive); in assay [12], > 100 µM (inactive). The GI50 in assay [13] is > 62.7 µM (inactive); in assay [14], 38.8 µM (inactive); in assay [15], > 19.9 µM (inactive); in assay [16] it was 6.32 µM (inactive); in [17] it was > 34 µM (inactive); in assay [18], > 37.3 µM (inactive). Moreover, the figures for the GI50 in [19] and in assay [20] were > 100 µM (inactive) and 9.44 µM (inactive), respectively.

Turning to `COc1ccc(C(C)NNC(=O)c2ccncc2)cc1OC` (stereo not given), the GI50 in [1], in [2], in assay [3], in [4], in assay [5] and in assay [6] was > 100 µM (inactive) throughout. Besides, the GI50 in [7] is > 100 µM (inactive); in assay [8], over 100 µM; in assay [9], > 100 µM (inactive); in assay [10], > 100 µM (inactive); in assay [11], > 100 µM (inactive); in assay [12], > 100 µM (inactive). Further, the GI50 in assay [13], in [14], in [15], in [16], in [17] and in assay [18] was > 100 µM (inactive) in each case. Moreover, the GI50 in assay [19] and in assay [20] was > 100 µM (inactive) in each case.

For `C=CCn1c(-c2ccc(-c3cs/c(=N\N=O)n3CC=C)cc2)cs/c1=N\N=O`, the GI50 in assay [1] was > 100 µM (inactive); in assay [2], > 100 µM (inactive); in assay [3], > 100 µM (inactive); in assay [4], > 100 µM (inactive); in assay [5], > 100 µM (inactive); in assay [6], 79.1 µM (inactive). Further, the GI50 in [7] was > 100 µM (inactive); in assay [8], over 100 µM; in assay [9] it was > 100 µM (inactive); in assay [10], 94.4 µM (inactive); in [11] it was > 100 µM (inactive); in assay [12], 45.9 µM (inactive). The GI50 in assay [13], in assay [14], in assay [15], in assay [16], in [17] and in assay [18] was > 100 µM (inactive) throughout. Moreover, the figures for the GI50 in assay [19] and in [20] were 61.1 µM (inactive) and > 100 µM (inactive), respectively.

For `COC(=O)C1=C(C(=O)OC)N(c2ccc(OC)cc2[N+](=O)[O-])C(c2ccc(C)cc2)=CC1c1ccc(OC)cc1OC` (stereo not given), the GI50 is 4.05 µM (inactive) in assay [1]; 16 µM (inactive) in assay [2]; 18.5 µM (inactive) in assay [3]; 5.13 µM (inactive) in [4]; 24.5 µM (inactive) in [5]; 10.7 µM (inactive) in assay [6]. Further, the GI50 in assay [7] was 47.6 µM (inactive); in [8], 4.65 µM; in assay [9], 25.2 µM (inactive); in assay [10], 6.61 µM (inactive); in assay [11], 32.9 µM (inactive); in [12], 31.7 µM (inactive). Also, the GI50 in assay [13] is 23.6 µM (inactive); in assay [14], 25.2 µM (inactive); in assay [15] it was 22.9 µM (inactive); in assay [16] it was 3.16 µM (inactive); in assay [17] it was 47.2 µM (inactive); in assay [18], 22.2 µM (inactive). The figures for the GI50 in assay [19] and in assay [20] were 6.37 µM (inactive) and 2.28 µM (inactive), respectively.

For `CN(CCCCN1CCCC1)CCCCN(C)C(=O)Cc1ccc(Cl)c(Cl)c1`, the GI50 is 14 µM (inactive) in assay [1]; 17.1 µM (inactive) in [2]; 18.2 µM (inactive) in assay [3]; 2.26 µM (inactive) in assay [4]; 14.8 µM (inactive) in [5]; 14.3 µM (inactive) in assay [6]. Besides, the GI50 in assay [7] was 16.8 µM (inactive); in assay [8] it was 21.1 µM; in assay [9], 25.2 µM (inactive); in assay [10] it was 9.29 µM (inactive); in [11] it was 17.2 µM (inactive); in assay [12], 19.5 µM (inactive). The GI50 in [13] is 18.2 µM (inactive); in assay [14], 3.66 µM (inactive); in assay [15], > 100 µM (inactive); in assay [16], 2.91 µM (inactive); in assay [17] it was 2.88 µM (inactive); in assay [18], 17.9 µM (inactive). Moreover, the GI50 is 13.6 µM (inactive) in assay [19] and 2.59 µM (inactive) in assay [20].

Take `COc1cc(OC)cc(C(=O)NC2=C(Cl)C(=O)c3ccccc3C2=O)c1`: the GI50 was 2.84 µM (inactive) in [1]; 14.1 µM (inactive) in [2]; 2.81 µM (inactive) in assay [3]; 1.95 µM (inactive) in [4]; 2.34 µM (inactive) in assay [5]; 0.668 µM (active) in assay [6]. The GI50 in [7] is 1.23 µM (inactive); in assay [8], 0.94 µM; in [9], 4.58 µM (inactive); in [10], 4.45 µM (inactive); in assay [11], 6.12 µM (inactive); in assay [12] it was 3.3 µM (inactive). In addition, the GI50 was 1.88 µM (inactive) in [13]; 0.361 µM (active) in assay [14]; 2.28 µM (inactive) in [15]; 0.798 µM (active) in assay [16]; 1.45 µM (inactive) in assay [17]; 1.74 µM (inactive) in assay [18]. In addition, the GI50 in assay [19] is 1.94 µM (inactive); in assay [20] it was 1.06 µM (active).

Regarding `c1ccc([P+](Cc2ccc(C[P+](c3ccccc3)(c3ccccc3)c3ccccc3)cc2)(c2ccccc2)c2ccccc2)cc1`, the GI50 was 51.4 µM (inactive) in assay [1]; > 100 µM (inactive) in assay [2]; 81.7 µM (inactive) in assay [3]; 42.7 µM (inactive) in assay [4]; 12.4 µM (inactive) in assay [5]; 12.4 µM (inactive) in assay [6]. Also, the GI50 in assay [7] is 40.9 µM (inactive); in assay [8], over 100 µM; in assay [9], 86.3 µM (inactive); in assay [10] it was 31.2 µM (inactive); in assay [11], > 100 µM (inactive); in assay [12], 32.4 µM (inactive). Also, the GI50 was 27.7 µM (inactive) in assay [13]; 44.2 µM (inactive) in assay [14]; > 100 µM (inactive) in assay [15]; 9.66 µM (inactive) in assay [16]; 26.3 µM (inactive) in assay [17]; 52.7 µM (inactive) in assay [18]. Besides, the GI50 in assay [19] was 21.2 µM (inactive); in assay [20], > 100 µM (inactive).

For the compound `C=CC(C1=CC(=O)C(OC)=CC1=O)c1ccccc1` (stereo not given) [4-METHOXYDALBERGIONE], the GI50 in assay [1] is 7.48 µM (inactive); in [2] it was > 51.2 µM (inactive); in assay [3], 18.1 µM (inactive); in assay [4] it was 13.8 µM (inactive); in [5] it was 17.1 µM (inactive); in [6], 8.81 µM (inactive). The GI50 was 9.53 µM (inactive) in assay [7]; 14.3 µM in assay [8]; 16.5 µM (inactive) in assay [9]; 14.2 µM (inactive) in assay [10]; 16.3 µM (inactive) in assay [11]; 17.8 µM (inactive) in [12]. Besides, the GI50 in assay [13] was 17.2 µM (inactive); in [14] it was 14.6 µM (inactive); in [15], 18.5 µM (inactive); in [16], 3.33 µM (inactive); in assay [17], 4.98 µM (inactive); in assay [18], 14.5 µM (inactive). Besides, the GI50 was 15.6 µM (inactive) in assay [19] and 3.86 µM (inactive) in assay [20].
